Data published in patent publication EP1144402B1, “SUBSTITUTED OXIMES AND HYDRAZONES AS NEUROKININ ANTAGONISTS” (SCHERING CORPORATION, priority 1998, dated 2000).

Experiments:
NK1 receptor = NK1 receptor (Homo sapiens, UniProt P25103); assay: neurokinin receptor binding assay (NK1)
Text: (§1) The in vitro and in vivo activity of the compounds of formula I can be determined by various procedures known in the art, such as a test for their ability to inhibit the activity of the NK1 agonist Substance P, an isolated hamster trachea NK2 assay, a test of the effect of NK1 antagonists on Substance P-induced airway microvascular leakage, measurement of NK2 activity in vivo in guinea pigs, measurement of bronchoconstriction due to NKA, and neurokinin receptor binding assay(s). NK3 activity is determined by following a procedure similar to that described in the literature, e.g., Molecular Pharmacol., 48 (1995), p. 711-716.
(§2) % Inhibition of neurokinin agonist activity is the difference between the percent of maximum specific binding (MSB) and 100%. The percent of MSB is defined by the following equation, wherein "dpm" is disintegrations per minute: % MSB =((dpm of unknown) - (dpm of nonspecific binding))/((dpm of total binding) - (dpm of nonspecific binding))X 100 [formula]

NK2 receptor = molecular target: T1, NK2 receptor (Homo sapiens, UniProt P21452); assay: neurokinin receptor binding assay (NK2)
T1 sequence (P21452 1-398): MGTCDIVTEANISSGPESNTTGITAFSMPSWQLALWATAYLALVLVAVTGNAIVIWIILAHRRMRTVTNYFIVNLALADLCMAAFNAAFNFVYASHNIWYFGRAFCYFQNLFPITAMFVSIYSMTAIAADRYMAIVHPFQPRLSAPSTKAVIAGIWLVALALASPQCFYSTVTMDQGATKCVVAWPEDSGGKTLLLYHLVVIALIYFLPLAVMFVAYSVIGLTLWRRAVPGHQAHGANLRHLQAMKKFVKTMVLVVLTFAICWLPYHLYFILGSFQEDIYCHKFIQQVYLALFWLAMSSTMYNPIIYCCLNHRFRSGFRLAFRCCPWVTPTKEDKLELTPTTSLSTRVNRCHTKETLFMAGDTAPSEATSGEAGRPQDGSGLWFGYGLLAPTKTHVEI
Text: as §1, with “711-716. Typical procedures for determining NK1 and NK2 activity are described in U.S. 5,696,267, incorporated herein by reference.” for “711-716.”
as §2
Using the test procedures known in the art, the following data (% inhibition or Ki) were obtained for preferred and/or representative compounds of formula I: […]

Sequence of NK1 receptor (P25103 whole entry, species assumed): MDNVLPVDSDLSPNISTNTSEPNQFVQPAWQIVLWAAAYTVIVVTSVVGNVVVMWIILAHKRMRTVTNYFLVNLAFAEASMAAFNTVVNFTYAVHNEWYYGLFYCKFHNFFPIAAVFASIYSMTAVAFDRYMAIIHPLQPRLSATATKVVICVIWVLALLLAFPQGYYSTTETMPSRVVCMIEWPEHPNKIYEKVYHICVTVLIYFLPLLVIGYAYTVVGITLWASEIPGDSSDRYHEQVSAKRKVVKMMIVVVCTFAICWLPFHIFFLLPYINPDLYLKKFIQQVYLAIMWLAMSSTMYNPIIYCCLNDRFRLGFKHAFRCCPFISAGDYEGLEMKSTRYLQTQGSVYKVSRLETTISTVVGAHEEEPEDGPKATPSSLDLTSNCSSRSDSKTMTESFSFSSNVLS

| Ki (NK1 receptor) [nM] | Ki (NK2 receptor) [nM] | Compound |
| --- | --- | --- |
| 1.2 | 1 | CO/N=C(\CN(C)C(=O)c1cc(Cl)cc(Cl)c1)[C@H](CCN1CCC(n2c(=O)[nH]c3ccccc32)CC1)c1ccc(Cl)c(Cl)c1 [Example 18A] |
| 1 | 0.9 | CO/N=C(\CN(C)C(=O)c1cc(Cl)cc(Cl)c1)[C@H](CCN1CCC(N2CCCN(Cc3nn[nH]n3)C2=O)CC1)c1ccc(Cl)c(Cl)c1 [Example 6S] |
| – | 0.8 | CO/N=C(\CN(C)C(=O)c1cc(Cl)cc(Cl)c1)[C@H](CCN1CCC(N2CCCN(CC(C)(C)O)C2=O)CC1)c1ccc(Cl)c(Cl)c1 [Example 6K] |
